Here are results for 7 molecules from patent US20260008787A1, “FUSED RING KRAS INHIBITORS FOR TREATING DISEASE” (BLOSSOMHILL THERAPEUTICS, INC., priority 2022, published 2026).

Common to all, as to assay type: cell-based
For one assay, the system named is GP2D (KRAS G12D). The assay is described as follows: Cell proliferation assay (CellTiter-Glo, 72 hours), GP2D. Particulars: GP2d, 72 h, 384-well, CellTiter-Glo 2.0. How it is done:
(§1) Two thousand KRAS mutant cells per well were seeded in 384-well white plate and then treated with indicated compounds for 72 hours at 37° C. and 5% CO2. Cell proliferation was measured using CellTiter-Glo 2.0 luciferase-based ATP detection assay (Promega, Madison, WI) following the manufacturer's protocol. IC50 values were determined using Prism software (GraphPad Software, San Diego, CA).
A general note: In ATP-based viability assays light output follows the ATP content of the culture.

For a further assay, the system named is SW620 (KRAS G12V). Briefly: Cell proliferation assay (CellTiter-Glo, 72 hours), SW620. Particulars: Homo sapiens, SW-620, 72 h, 384-well, CellTiter-Glo 2.0. The procedure:
as §1

The subject of another assay is AGS (G12D). The assay is described as follows: Cell proliferation assay (CellTiter-Glo, 72 hours), AGS. Particulars: 72 h, 384-well, CellTiter-Glo 2.0. How it is done: as §1

By pIC50 is commonly meant −log10 of the IC50, conventionally taken in molar units. Higher therefore signals a low IC50.

pIC50: −log10 of the molar value.

Consider `CCc1c(F)ccc2cc(O)cc(-c3nc4c5c(nc(OC[C@@]67CCCN6C/C(=C\F)C7)nc5c3F)N3CCCC[C@H]3CO4)c12` [Example 41, 5-ethyl-6-fluoro-4-[(8aS)-4-fluoro-2-{[(2Z,7aS)-2-(fluoromethylidene)tetrahydro-1H-pyrrolizin-7a(5H)-yl]methoxy}-8,8a,9,10,11,12-hexahydro-7-oxa-1,3,6,12a-tetraazabenzo[4,5]cyclohepta[1,2,3-de]naphthalen-5-yl]naphthalen-2-ol], for which the pIC50 in the assay with GP2D (KRAS G12D) is 7.68; in the assay with SW620 (KRAS G12V), 7.38; in the assay with AGS (G12D), 7.37.
The matching figures for `C#Cc1c(F)ccc2cc(O)cc(-c3nc4c5c(nc(OC[C@@]67CCCN6C[C@H](F)C7)nc5c3F)N[C@@H](C3CCC3)CO4)c12` [Example 35, 4-[(9S)-9-cyclobutyl-4-fluoro-2-{[(2R,7aS)-2-fluorotetrahydro-1H-pyrrolizin-7a(5H)-yl]methoxy}-9,10-dihydro-8H-7-oxa-1,3,6,10-tetraazacyclohepta[1,2,3-de]naphthalen-5-yl]-5-ethynyl-6-fluoronaphthalen-2-ol]: < 5.52, < 5.52 and < 5.52.
The matching figures for `C#Cc1c(F)ccc2cc(O)cc(-c3nc4c5c(nc(OC[C@@]67CCCN6C[C@H](F)C7)nc5c3F)N(C)[C@H](CO)CO4)c12` [Example 91, 5-ethynyl-6-fluoro-4-[(9R)-4-fluoro-2-{[(2R,7aS)-2-fluorotetrahydro-1H-pyrrolizin-7a(5H)-yl]methoxy}-9-(hydroxymethyl)-10-methyl-9,10-dihydro-8H-7-oxa-1,3,6,10-tetraazacyclohepta[1,2,3-de]naphthalen-5-yl]naphthalen-2-ol]: 6.27, < 5.52 and 6.03.
Regarding `C#Cc1c(F)ccc2cc(O)cc(-c3nc4c5c(nc(OC[C@@]67CCCN6C[C@H](F)C7)nc5c3F)N(C)[C@@H](CO)CO4)c12` [Example 27, 5-ethynyl-6-fluoro-4-[(9S)-4-fluoro-2-{[(2R,7aS)-2-fluorotetrahydro-1H-pyrrolizin-7a(5H)-yl]methoxy}-9-(hydroxymethyl)-10-methyl-9,10-dihydro-8H-7-oxa-1,3,6,10-tetraazacyclohepta[1,2,3-de]naphthalen-5-yl]naphthalen-2-ol], the pIC50 in the assay with GP2D (KRAS G12D) and with AGS (G12D) was < 5.52 throughout.
`C#Cc1c(F)ccc2cc(O)cc(-c3nc4c5c(nc(OC[C@@]67CCCN6C[C@H](F)C7)nc5c3F)N3CC(F)(F)CC[C@H]3CO4)c12` [Example 98, 5-ethynyl-6-fluoro-4-[(8aS)-4,11,11-trifluoro-2-{[(2R,7aS)-2-fluorotetrahydro-1H-pyrrolizin-7a(5H)-yl]methoxy}-8,8a,9,10,11,12-hexahydro-7-oxa-1,3,6,12a-tetraazabenzo[4,5]cyclohepta[1,2,3-de]naphthalen-5-yl]naphthalen-2-ol] gave a pIC50 in the assay with GP2D (KRAS G12D) of 6.94.
Take `C#Cc1c(F)ccc2cc(O)cc(-c3nc4c5c(nc(OC[C@@]67CCCN6C[C@H](F)C7)nc5c3F)N3CCC[C@](C)(O)[C@@H]3CO4)c12` [Example 113, (8aS,9S)-5-(8-ethynyl-7-fluoro-3-hydroxynaphthalen-1-yl)-4-fluoro-2-{[(2R,7aS)-2-fluorotetrahydro-1H-pyrrolizin-7a(5H)-yl]methoxy}-9-methyl-8,8a,9,10,11,12-hexahydro-7-oxa-1,3,6,12a-tetraazabenzo[4,5]cyclohepta[1,2,3-de]naphthalen-9-ol]: the pIC50 with GP2D (KRAS G12D) and in the assay with AGS (G12D) was < 5.52 each time.
In the case of `C#Cc1c(F)ccc2cc(O)cc(-c3nc4c5c(nc(OC[C@@]67CCCN6C[C@H](F)C7)nc5c3F)N3CCC[C@@](C)(O)[C@H]3CO4)c12` [Example 53, (8aR,9R)-5-(8-ethynyl-7-fluoro-3-hydroxynaphthalen-1-yl)-4-fluoro-2-{[(2R,7aS)-2-fluorotetrahydro-1H-pyrrolizin-7a(5H)-yl]methoxy}-9-methyl-8,8a,9,10,11,12-hexahydro-7-oxa-1,3,6,12a-tetraazabenzo[4,5]cyclohepta[1,2,3-de]naphthalen-9-ol], the figures for the pIC50 in the assay with GP2D (KRAS G12D) and in the assay with AGS (G12D) were 7.46 and 6.95, respectively.
